# Test results: patent US9012397B2 (priority 2011, dated 2015)
# Where two headings read alike, the source gives them in different places.
# Tests used:
# itching = assay type: in vivo, human; details: person
# Method: (§1) The method of the invention has been carried out with respect to a number of skin disorders. The patients were treated with one of two peptides, each at a concentration of 50 μg/gr cream (unless otherwise indicated):
# (§2) The cream was manufactured by Amiga LTD, Israel, and contains the following components:
# 1. A person suffered from a strong itching sensation on the skin all over the body for no apparent reason.
# 2. A person suffered from a red rash and itching sensation on their breast. ZEP4 (500 μg/gr cream) was applied twice in a period of 2 hours. • Results: relief from itching within 10 minutes.
# 3. A person suffered from a strong itching sensation in the lower limbs which sometimes spread to the abdomen and back. […] I. Skin Infection
# skin infection = assay type: in vivo, human
# Method: as §1, §2
# 1. person two suffered from an infection on the wrist of the left hand, apparently an allergic reaction to a watch band. Large spots appeared around the wrist accompanied by redness.
# 2. person three suffered from an infection on the wrist of the left hand, apparently an allergic reaction to a watch band. Large spots appeared around the wrist accompanied by redness and itching.
# 3. 2 cases of infected skin wounds.
# [1] = person three, wrist infection, allergic reaction to watch band, 500 μg/gr cream several times a day
substance,measurement,setting,value
pGLU-ASN-TRP-LYS-C8 [ZEP3],clinical outcome,"itching; strong itching all over the body, 500 μg/gr cream a number of times","immediate relief from itching, which ceased"
same,clinical outcome,"itching; strong itching in lower limbs, 500 μg/gr cream as needed",immediate relief
same,clinical outcome,"skin infection; 2 cases of infected skin wounds, 50 μg/gr cream",aided in the healing of the wounds
same,clinical outcome,skin infection; [1],immediate relief from the itching
same,time to decrease in redness,skin infection; [1],≤ 24 h
